Calls of active or inactive are those of the source. The calls are words filed in the database; no cut-off is given here.
Assays:
[1] = system: HepG2; test: Growth inhibition of human HepG2 cells incubated for 48 hrs by MTT reagent based ELISA reader analysis; assay type: functional, cell-based; conditions: HepG2, 48 h
[2] = system: HCT-116; test: Inhibition of cell migration in human HCT-116 cells assessed as intercellular distance at 5 nM incubated for 24 hrs by inverted phase-contrast microscopic analysis (reference value: 1 +/- 0.2 millimeter); assay type: functional
[3] = system: HCT-116; test: Induction of apoptosis in human HCT-116 cells assessed as modulation of TOP3B mRNA expression at 10 to 500 nM incubated for 6 to 48 hrs by RNA analysis; assay type: functional, cell-based; conditions: dose 10-500 nM, time 6-48 hrs
[4] = system: HCT-116; test: Induction of apoptosis in human HCT-116 cells assessed as modulation of DDX47 mRNA expression at 10 to 500 nM incubated for 6 to 48 hrs by RNA analysis; assay type: functional, cell-based; conditions: dose 10-500 nM, time 6-48 hrs
[5] = system: HCT-116; test: Induction of apoptosis in human HCT-116 cells assessed as modulation of DDX49 mRNA expression at 10 to 500 nM incubated for 6 to 48 hrs by RNA analysis; assay type: functional, cell-based; conditions: dose 10-500 nM, time 6-48 hrs
[6] = system: HCT-116; test: Induction of apoptosis in human HCT-116 cells assessed as modulation of DDX54 mRNA expression at 10 to 500 nM incubated for 6 to 48 hrs by RNA analysis; assay type: functional, cell-based; conditions: dose 10-500 nM, time 6-48 hrs
[7] = system: HCT-116; test: Induction of apoptosis in human HCT-116 cells assessed as upregulation of Bax mRNA expression at 10 to 500 nM incubated for 6 to 48 hrs by RNA analysis; assay type: functional, cell-based; conditions: dose 10-500 nM, time 6-48 hrs
[8] = system: HCT-116; test: Induction of apoptosis in human HCT-116 cells assessed as upregulation of GADD45A mRNA expression at 10 to 500 nM incubated for 6 to 48 hrs by RNA analysis; assay type: functional, cell-based; conditions: dose 10-500 nM, time 6-48 hrs
[9] = system: HCT-116; test: Induction of apoptosis in human HCT-116 cells assessed as downregulation of GTF2H1 mRNA expression at 10 to 500 nM incubated for 6 to 48 hrs by RNA analysis; assay type: functional, cell-based; conditions: dose 10-500 nM, time 6-48 hrs
[10] = system: HCT-116; test: Activation of innate immune response in human HCT-116 cells assessed as upregulation of CASP1 gene expression at 10 to 500 nM incubated for 6 to 48 hrs by RNA analysis; assay type: functional, cell-based; conditions: dose 10-500 nM, time 6-48 hrs
[11] = system: HCT-116; test: Activation of innate immune response in human HCT-116 cells assessed as upregulation of IFIH1 gene expression at 10 to 500 nM incubated for 6 to 48 hrs by RNA analysis; assay type: functional, cell-based; conditions: dose 10-500 nM, time 6-48 hrs
[12] = system: HCT-116; test: Activation of innate immune response in human HCT-116 cells assessed as upregulation of IL-12RB2 gene expression at 10 to 500 nM incubated for 6 to 48 hrs by RNA analysis; assay type: functional, cell-based; conditions: dose 10-500 nM, time 6-48 hrs
[13] = system: HCT-116; test: Activation of innate immune response in human HCT-116 cells assessed as upregulation of IRF3 gene expression at 10 to 500 nM incubated for 6 to 48 hrs by RNA analysis; assay type: functional, cell-based; conditions: dose 10-500 nM, time 6-48 hrs
[14] = system: HCT-116; test: Induction of apoptosis in human HCT-116 cells assessed as downregulation of ADPGK gene expression at 10 to 500 nM incubated for 6 to 48 hrs by RNA analysis; assay type: functional, cell-based; conditions: dose 10-500 nM, time 6-48 hrs
[15] = system: HCT-116; test: Induction of apoptosis in human HCT-116 cells assessed as downregulation of PCK2 gene expression at 10 to 500 nM incubated for 6 to 48 hrs by RNA analysis; assay type: functional, cell-based; conditions: dose 10-500 nM, time 6-48 hrs
[16] = system: HCT-116; test: Induction of apoptosis in human HCT-116 cells assessed as downregulation of PPP2CA gene expression at 10 to 500 nM incubated for 6 to 48 hrs by RNA analysis; assay type: functional, cell-based; conditions: dose 10-500 nM, time 6-48 hrs
[17] = system: HCT-116; test: Induction of apoptosis in human HCT-116 cells assessed as downregulation of RANBP2 gene expression at 10 to 500 nM incubated for 6 to 48 hrs by RNA analysis; assay type: functional, cell-based; conditions: dose 10-500 nM, time 6-48 hrs
[18] = system: HCT-116; test: Induction of apoptosis in human HCT-116 cells assessed as downregulation of NUP155 gene expression at 10 to 500 nM incubated for 6 to 48 hrs by RNA analysis; assay type: functional, cell-based; conditions: dose 10-500 nM, time 6-48 hrs
[19] = system: HCT-116; test: Induction of apoptosis in human HCT-116 cells assessed as downregulation of NUP205 gene expression at 10 to 500 nM incubated for 6 to 48 hrs by RNA analysis; assay type: functional, cell-based; conditions: dose 10-500 nM, time 6-48 hrs
[20] = system: HCT-116; test: Induction of apoptosis in human HCT-116 cells assessed as downregulation of NUP85 gene expression at 10 to 500 nM incubated for 6 to 48 hrs by RNA analysis; assay type: functional, cell-based; conditions: dose 10-500 nM, time 6-48 hrs
[21] = system: HCT-116; test: Induction of apoptosis in human HCT-116 cells assessed as downregulation of NUP93 gene expression at 10 to 500 nM incubated for 6 to 48 hrs by RNA analysis; assay type: functional, cell-based; conditions: dose 10-500 nM, time 6-48 hrs
[22] = system: HCT-116; test: Induction of apoptosis in human HCT-116 cells assessed as downregulation of NUP98 gene expression at 10 to 500 nM incubated for 6 to 48 hrs by RNA analysis; assay type: functional, cell-based; conditions: dose 10-500 nM, time 6-48 hrs
[23] = system: HCT-116; test: Induction of apoptosis in human HCT-116 cells assessed as downregulation of CTPS1 gene expression at 10 to 500 nM incubated for 6 to 48 hrs by RNA analysis; assay type: functional, cell-based; conditions: dose 10-500 nM, time 6-48 hrs
[24] = system: HCT-116; test: Induction of apoptosis in human HCT-116 cells assessed as downregulation of NME4 gene expression at 10 to 500 nM incubated for 6 to 48 hrs by RNA analysis; assay type: functional, cell-based; conditions: dose 10-500 nM, time 6-48 hrs
[25] = system: HCT-116; test: Induction of apoptosis in human HCT-116 cells assessed as downregulation of AK2 gene expression at 10 to 500 nM incubated for 6 to 48 hrs by RNA analysis; assay type: functional, cell-based; conditions: dose 10-500 nM, time 6-48 hrs
[26] = system: HCT-116; test: Induction of apoptosis in human HCT-116 cells assessed as downregulation of AMPD3 gene expression at 10 to 500 nM incubated for 6 to 48 hrs by RNA analysis; assay type: functional, cell-based; conditions: dose 10-500 nM, time 6-48 hrs
[27] = system: HCT-116; test: Induction of apoptosis in human HCT-116 cells assessed as downregulation of DPYD gene expression at 10 to 500 nM incubated for 6 to 48 hrs by RNA analysis; assay type: functional, cell-based; conditions: dose 10-500 nM, time 6-48 hrs
[28] = system: HCT-116; test: Induction of apoptosis in human HCT-116 cells assessed as downregulation of NT5C3A gene expression at 10 to 500 nM incubated for 6 to 48 hrs by RNA analysis; assay type: functional, cell-based; conditions: dose 10-500 nM, time 6-48 hrs
[29] = system: HCT-116; test: Induction of apoptosis in human HCT-116 cells assessed as downregulation of TYMS gene expression at 10 to 500 nM incubated for 6 to 48 hrs by RNA analysis; assay type: functional, cell-based; conditions: dose 10-500 nM, time 6-48 hrs
[30] = system: HCT-116; test: Induction of apoptosis in human HCT-116 cells assessed as downregulation of LIPE gene expression at 10 to 500 nM incubated for 6 to 48 hrs by RNA analysis; assay type: functional, cell-based; conditions: dose 10-500 nM, time 6-48 hrs
[31] = system: HCT-116; test: Induction of apoptosis in human HCT-116 cells assessed as downregulation of PRKAR2B gene expression at 10 to 500 nM incubated for 6 to 48 hrs by RNA analysis; assay type: functional, cell-based; conditions: dose 10-500 nM, time 6-48 hrs
[32] = system: PDX14244; test: Antitumor activity against human PDX14244 cells xenografted in SCID mouse model assessed as reduction in tumor volume at 2 mg/kg,po administrated once per week for 3 weeks; assay type: functional, organism-based
[33] = system: PDX14244; test: Antitumor activity against human PDX14244 cells xenografted in SCID mouse model assessed as reduction in tumor volume at 8 mg/kg,po administrated once per week for 3 weeks; assay type: functional, organism-based

| SMILES | IC50 [1] [nM] | Activity [2] [mm] | Activity [3] | Activity [5] | Activity [6] | Activity [7] | Activity [8] | Activity [9] | Activity [11] | Activity [12] | Activity [13] | Activity [15] | Activity [16] | Activity [17] | Activity [18] | Activity [19] | Activity [20] | Activity [21] | Activity [22] | Activity [23] | further results |
| --- | --- | --- | --- | --- | --- | --- | --- | --- | --- | --- | --- | --- | --- | --- | --- | --- | --- | --- | --- | --- | --- |
| CC[C@@]1(O)C(=O)OCc2c1cc1n(c2=O)Cc2cc3cc4c(cc3nc2-1)OCO4 | 39.5 | 1.3 | Active | Active | Active | Active | Active | Active | Active | Active | Active | Active | Active | Active | Active | Active | Active | Active | Active | Active | Activity [4]: Active; Activity [10]: Active; Activity [14]: Active; Activity [24]: Active; Activity [25]: Active; Activity [26]: Active; Activity [27]: Active; Activity [28]: Active; Activity [29]: Active; Activity [30]: Active; Activity [31]: Active |
| CC[C@@]1(O)C(=O)OCc2c1cc1n(c2=O)Cc2c-1nc1cc3c(cc1c2-c1cc(OC)cc(OC)c1)OCO3 | 118 | 1.5 | Active | Active | Active | Active | Active | Active | Active | Active | Active | Active | Active | Active | Active | Active | Active | Active | Active | Active | Activity [32]: Active; Activity [33]: Active; Activity [24]: Active; Activity [25]: Active; Activity [26]: Active; Activity [28]: Active; Activity [29]: Active; Activity [30]: Active; Activity [31]: Active |
| CCc1ccc(-c2c3c(nc4cc5c(cc24)OCO5)-c2cc4c(c(=O)n2C3)COC(=O)[C@]4(O)CC)cc1 | 160 | 1.3 | Active | Active | Active | Active | Active | Active | Active | Active | Active | Active | Active | Active | Active | Active | Active | Active | Active | Active | Activity [32]: Active; Activity [33]: Active; Activity [4]: Active; Activity [10]: Active; Activity [14]: Active; Activity [24]: Active; Activity [25]: Active; Activity [26]: Active; Activity [27]: Active; Activity [28]: Active; Activity [29]: Active; Activity [30]: Active; Activity [31]: Active |
| CC[C@@]1(O)C(=O)OCc2c1cc1n(c2=O)Cc2c-1nc1cc3c(cc1c2-c1ccc(OC)cc1)OCO3 | 64 | 1.3 | Active | Active | Active | Active | Active | Active | Active | Active | Active | Active | Active | Active | Active | Active | Active | Active | Active | Active | Activity [32]: Active; Activity [33]: Active; Activity [4]: Active; Activity [10]: Active; Activity [14]: Active; Activity [24]: Active; Activity [25]: Active; Activity [26]: Active; Activity [27]: Active; Activity [28]: Active; Activity [29]: Active; Activity [30]: Active; Activity [31]: Active |

Reference: ChEMBL document CHEMBL5376003, “Structure-Activity Relationship of FL118 Platform Position 7 Versus Position 9-Derived Compounds and Their Mechanism of Action and Antitumor Activity” (J Med Chem, 2023)
